In US9226914B2, “Methods for promoting neuronal development and/or health” (Mead Johnson Nutrition Company, priority 2013, dated 2016):
Blank lines part the entries; values can stand above or below the compound they belong to.

Key:
[1] = Precipitation on dilution of stock into experiment bath solution; type: physicochemical; details: 1 M stock in 100% DMSO; bath 1, 3 and 5 mM
Description: All compounds were recorded with a fixed DMSO concentration of 0.1% throughout the experiments. Due to the fact that alpha-lipoic acid was investigated at concentrations between 100 μM and 5 mM, the solvent concentration reached 0.7%. […] Working solutions of all compounds were freshly prepared for each experiment day and between 0.9 and 10 μL were applied to a 1 mL experiment bath solution.

[2] = system: frontal cortex neuronal networks (cortical network activity in vitro); assay: Acute effects on cortical neuronal network activity on MEA neurochips (spike train analysis); type: cell-based, mice
Description: The experiments were performed according to the SOPs, “SOP Preparation Frontal Cortex Mouse—Serum (Rev. 07 2012 Mar. 6 eng)”, “SOP Solutions for Neuronal Cell Culture (Rev. 04 2009 Nov. 18 eng)”, “SOP Cleaning and Substrate Preparations of MEAs (Rev. 03 2009 Apr. 26 eng)”, “SOP Feeding neuronal cell culture”, “SOP Cell culture preparation MEAs”, “SOP Plexon Recording” and “SOP Plexon Data Analysis”.
The microelectrode array neurochips (“MEA neurochips”) were provided by the Center for Network Neuroscience (CNNS) at the University of North Texas. These 5×5 cm^2 glass chips have a dual recording matrix with 32 passive electrodes per matrix and indium tin oxide conductors. The hydrophobic insulation material surface was activated by a brief butane flame pulse through a stainless steel mask. Thus, cell attachment on a confined region, a 5 mm diameter centered on the electrode array, is ensured. The activated face regions were coated with 25 μg/mL poly-D-lysine (30-70 kD) and incubated […] in 16 μg/mL laminin for 3 hours right before the preparation.
Frontal cortex tissue was harvested from embryonic day 15 chr:NMRI mice. Mice were sacrificed by cervical dislocation according to the German Animal Protection Act Section 4. Cultures on MEAs were incubated at 37 deg. C. in a 10% CO2 atmosphere until ready for use, which usually is four weeks to three months after seeding. Culture media were replenished two times a week with DMEM containing 10% heat inactivated horse serum. The developing co-cultures were treated with the mitosis inhibitor 5-fluoro-2′-deoxyuridine (25 μMolar) and uridine (63 μMolar) for 48 hours on day 5 after seeding to prevent further glial proliferation.
After establishing a stable activity pattern after 4 weeks, the neuronal networks on MEA chips were employed for substance testing. For this example, cultures between 25 and 38 days in vitro were used. For extracellular recording, MEA neurochips were placed into sterilized constant-bath recording chambers and maintained at 37 deg. C. Recordings were made in DMEM including 10% heat inactivated horse serum. The pH was maintained at 7.4 with a continuous stream of filtered, humidified airflow with 10% CO2. Sets of preamplifiers were positioned to either side of the recording chamber. Recording was performed with the multichannel acquisition processor system, a computer-controlled 64-channel amplifier system (Plexon, Inc., Dallas, Tex., USA) providing programmable amplification, filtering, switching, and digital signal processing of microelectrode signals. The total system gain used was 10K with a simultaneous 40 kHz sampling rate. The signals routinely recorded by these neurochips are located in a range of 15-1800 microV.
The multichannel signal acquisition system delivered single neuron spike data. Spike identification and separation were accomplished with a template-matching algorithm in real time. This allows for the extracellular recording from action potentials from a maximum of 256 neurons simultaneously.
The action potentials, or spikes, were recorded in spike trains and are clustered in so-called bursts. Bursts were quantitatively described via direct spike train analysis using the program NeuroEXplorer (Plexon Inc., Dallas, Tex., USA) and in house programs. Bursts were defined by the beginning and the end of short spike invents. Maximum spike intervals defining the start of a burst were 40 ms and maximum intervals to end a burst from 200 ms.
All compounds were recorded with a fixed DMSO concentration of 0.1% throughout the experiments. Due to the fact that alpha-lipoic acid was investigated at concentrations between 100 μM and 5 mM, the solvent concentration reached 0.7%.
The high content analysis of the network activity patterns provides a multiparametric description characterized in four activity categories: general activity, burst structure, synchronicity and oscillatory behavior. […]

[3] = system: neuronal activity (spike rate and burst rate); assay: Chronic effects of hBDNF on neuronal activity development in the MEA system; type: cell-based; details: 20 ng/ml, FIG. 15
Excerpt: For neurotrophic factors such as hBDNF, NeuroProof tested the chronic effects in the MEA system (See FIG. 15).

EC50 ([2]; Mus musculus, concentration of ALA, FIGS. 9 and 10, read-out: EC50 for the decline of activity): 5.03 mM
Compound: O=C(O)CCCCC1CCSS1 (stereo not drawn) [ALA, alpha-lipoic acid]
precipitation during dilution [1]: precipitation of alpha-lipoic acid occurred at the three highest concentrations | activity reached (spike rate fit) ([2]; 100 μM alpha-lipoic acid, FIG. 6): 91.5 % of control (0.1% DMSO) activity | activity reached (spike rate fit) ([2]; 1 mM alpha-lipoic acid, FIG. 6): 83.6 % of control (0.1% DMSO) activity | activity reached (spike rate fit) ([2]; 5 mM alpha-lipoic acid, FIG. 6): 43.9 % of control (0.1% DMSO) activity | concentration at which general activity is affected (spike rate fit) ([2]; FIG. 6): above 100 μM | Hill coefficient (nH) of the decline of activity ([2]; concentrations above 100 μM ALA, higher value = steeper slope): 1.66 | concentration at which general activity is reduced ([2]; experimental concentrations): ≥ 1 mM

Compound: CC/C=C\C/C=C\C/C=C\C/C=C\C/C=C\C/C=C\CCC(=O)O [DHA, docosahexaenoic acid]
activity (spike rate fit), activity decline reached ([2]; 100 μM DHA, highest tested concentration, FIG. 5): 63.6 % of native activity | concentration at which spike rates and burst rates are reduced ([2]; increasing effects at higher concentrations): ≥ 100 pM

Compound: hBDNF: Human recombinant brain derived neurotrophic factor, PeproTech #450-02
acceleration of neuronal activity development ([3]; chronic): approximately one week | general activity (spike rate, burst rate), chronic treatment ([3]; versus vehicle): increases the general activity at every recorded time point | effect on general activity ([2]; above 500 pg/mL, tested 10 pg/mL to 50 μg/mL): only shows slight effects on the general activity which is numerically increased | EC50 on spike rate ([2]; acute application): 5.28 ng/mL
